In assay [1] the test system is B16 mouse melanoma cells. Nature of the assay: cell viability in the B16 cell-based assay (Viability, B16 IC50). The essentials:
(§1)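 Both lines undergo the phenotypic GM3 assay, and viability is recorded from that same cell-based run.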

In assay [2] the test system is GM3 expression on the cell surface, C32 human melanoma cells. Nature of the assay: cell based phenotypic assay, cell surface GM3 by antibody mediated immunofluorescence, C32 (GM3 C32 IC50). The method, boiled down:
as §1

The test system of assay [3] is C32 human melanoma cells. Nature of the assay: cell viability in the C32 cell-based assay (Viability, C32 IC50). The essentials:
as §1

The test system of assay [4] is GM3 expression on the cell surface, B16 mouse melanoma cells. Description: cell based phenotypic assay, cell surface GM3 by antibody mediated immunofluorescence, B16 (GM3 B16 IC50). The method, boiled down: as §1
Assay [5] deals with T1, glucosylceramide synthase (Homo sapiens, UniProt Q16739).
T1 construct: Microsomes were isolated from A375 human melanoma cells; endogenous in cells; host or cells: A375 human melanoma cells (microsomal fraction, 100,000 g pellet)
T1 sequence (Q16739 1-394): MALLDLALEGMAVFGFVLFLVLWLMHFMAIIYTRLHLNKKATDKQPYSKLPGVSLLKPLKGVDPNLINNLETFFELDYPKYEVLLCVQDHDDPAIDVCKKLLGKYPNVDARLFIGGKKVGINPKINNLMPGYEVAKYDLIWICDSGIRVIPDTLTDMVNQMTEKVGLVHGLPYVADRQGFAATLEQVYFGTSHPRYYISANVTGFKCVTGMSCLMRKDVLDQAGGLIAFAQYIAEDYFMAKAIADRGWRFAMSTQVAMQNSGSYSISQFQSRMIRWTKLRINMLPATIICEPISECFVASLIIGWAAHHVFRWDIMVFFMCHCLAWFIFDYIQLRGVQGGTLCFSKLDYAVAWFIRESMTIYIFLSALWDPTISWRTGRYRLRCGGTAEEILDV
Description: microsomal assay measuring conversion of ceramide to glucosylceramide by HPLC (GCS IC50). In kind it is biochemical. The conditions noted are these: concentration causing 50% inhibition of glucosylceramide synthase activity. The essentials:
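Microsomal preparation assayed for glucosylceramide synthase by direct HPLC measurement of ceramide conversion to glucosylceramide. GCS IC50 is the compound concentration giving 50% inhibition of enzyme activity.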

[6] abbreviates: read-out: GM3 C32 IC50; C32 human melanoma cells; 50% inhibition of GM3 expression on the cell surface.
Where [7] appears, read: read-out: Viability, C32 IC50; C32 cells; concentration causing 50% cell death; values greater than 10 represent a lack of cell death.
Where [8] appears, read: read-out: GM3 B16 IC50; B16 mouse melanoma cells; 50% inhibition of GM3 expression on the cell surface.
[9] abbreviates: Mus musculus, B16, B16 cells, concentration causing 50% cell death, values greater than 10 represent a lack of cell death, read-out: Viability, B16 IC50.
Setting [10] is: Homo sapiens, C32 human melanoma cells; 50% inhibition of GM3 expression on the cell surface; read-out: GM3 C32 IC50.
Setting [11] is: Homo sapiens, C32, C32 cells; concentration causing 50% cell death; values greater than 10 represent a lack of cell death; read-out: Viability, C32 IC50.
Where [12] appears, read: Mus musculus, B16 mouse melanoma cells; 50% inhibition of GM3 expression on the cell surface; read-out: GM3 B16 IC50.
[13] abbreviates: C32 human melanoma cells; 50% inhibition of GM3 expression on the cell surface; read-out: GM3 C32 IC50.
Where [14] appears, read: C32 cells; concentration causing 50% cell death; values greater than 10 represent a lack of cell death; read-out: Viability, C32 IC50.
Where [15] appears, read: B16 mouse melanoma cells; 50% inhibition of GM3 expression on the cell surface; read-out: GM3 B16 IC50.

Like-named read-outs stand apart in the source and are kept apart here. Where only a bound is given, the exact number is not on record here.

The term IC50 denotes the midpoint of a concentration-inhibition curve. Consider `CN(C)C(=O)c1ccc(Oc2ccc(C(C)(C)NC(=O)OC3CN4CCC3CC4)cc2)cc1` (stereo not shown) [Example 283, Quinuclidin-3-yl 2-(4-(4-(dimethylcarbamoyl)phenoxy)phenyl)propan-2-ylcarbamate], for which the IC50 in assay [1] (Mus musculus, B16, read-out: Viability, B16 IC50) is at least 10 µM; in assay [2] (setting [6]), 114 nM; in assay [3] (setting [7]) it was at least 10 µM; in assay [4] (setting [8]), 1030 nM; in assay [5] it was 606 nM.
As to `CN(C)C(=O)c1ccc(Oc2ccc(C(C)(C)NC(=O)NC3(C)CN4CCC3CC4)cc2)cc1` (stereo not shown) [Example 284, N,N-Dimethyl-4-(4-(2-(3-(3-methylquinuclidin-3-yl)ureido)propan-2-yl)phenoxy)benzamide], the IC50 in assay [1] (setting [9]) is at least 10 µM; in assay [2] (setting [10]), 60.7 nM; in assay [3] (setting [11]), at least 10 µM; in assay [4] (setting [12]), 3780 nM; in assay [5] it was 201 nM.
On to `CN(C)C(=O)c1ccc(Oc2ccc(C(C)(C)NC(=O)NC3(C)CCN4CCC3CC4)cc2)cc1` (stereo not shown) [Example 285, N,N-Dimethyl-4-(4-(2-(3-(4-methyl-1-azabicyclo[3.2.2]nonan-4-yl)ureido)propan-2-yl)phenoxy)benzamide], for which the IC50 in assay [1] (setting [9]) was at least 10 µM; in assay [2] (setting [13]) it was 6.48 nM; in assay [3] (setting [14]), 1 µM; in assay [4] (setting [15]), 725 nM; in assay [5], 16.3 nM.
In the case of `CN(C)C(=O)c1ccc(Oc2ccc(C(C)(C)NC(=O)OC3CCN4CCC3CC4)cc2)cc1` (stereo not shown) [Example 286, 1-Azabicyclo[3.2.2]nonan-4-yl 2-(4-(4-(dimethylcarbamoyl)phenoxy)phenyl)propan-2-ylcarbamate], the IC50 was at least 10 µM in assay [1] (setting [9]); 31.6 nM in assay [2] (setting [10]); at least 10 µM in assay [3] (setting [11]); 793 nM in assay [4] (setting [12]); 437 nM in assay [5].
Take `CN(C)C(=O)c1ccc(Oc2ccc(C(C)(C)NC(=O)OC3CN4CCC3CC4)cc2)cc1` (stereo not shown) [Example 287, Quinuclidin-3-yl 2-(4-(4-(dimethylcarbamoyl)phenoxy)phenyl)propan-2-ylcarbamate]: the IC50 was at least 10 µM in assay [1] (read-out: Viability, B16 IC50, B16 cells, concentration causing 50% cell death, values greater than 10 represent a lack of cell death); 229 nM in assay [2] (setting [6]); 3.16 µM in assay [3] (setting [7]); 2200 nM in assay [4] (setting [8]); 1330 nM in assay [5].
As to `CN(C)C(=O)c1cccc(Oc2cccc(C(C)(C)NC(=O)OC3CCN4CCC3CC4)c2)c1` (stereo not shown) [Example 288, 1-Aza-bicyclo[3.2.2]nonan-4-yl 2-(3-(3-(dimethylcarbamoyl)phenoxy)phenyl)propan-2-ylcarbamate], the IC50 in assay [1] (setting [9]) is at least 10 µM; in assay [2] (setting [10]), 50.2 nM; in assay [3] (setting [11]), at least 10 µM; in assay [4] (setting [12]), 1180 nM; in assay [5] it was 203 nM.
With `CN(C)C(=O)c1cccc(Oc2cccc(C(C)(C)NC(=O)NC3(C)CN4CCC3CC4)c2)c1` (stereo not shown) [Example 289, N,N-Dimethyl-3-(3-(2-(3-(3-methylquinuclidin-3-yl)ureido)propan-2-yl)phenoxy)benzamide], the IC50 is 9.26 µM in assay [1] (setting [9]); 91.7 nM in assay [2] (setting [10]); at least 10 µM in assay [3] (setting [11]); 1410 nM in assay [4] (setting [12]); 104 nM in assay [5].
Take `CN(C)C(=O)c1ccc(Oc2ccc(C(C)(C)NC(=O)NC3(C)CCN4CCC3CC4)cc2)cc1` (stereo not shown) [Example 290, N,N-Dimethyl-4-(4-(2-(3-(4-methyl-1-aza-bicyclo[3.2.2]nonan-4-yl)ureido)propan-2-yl)phenoxy)benzamide]: the IC50 in assay [1] (B16 cells, concentration causing 50% cell death, values greater than 10 represent a lack of cell death, read-out: Viability, B16 IC50) was at least 10 µM; in assay [2] (setting [13]), 26.8 nM; in assay [3] (setting [14]), 3.16 µM; in assay [4] (setting [15]) it was 2580 nM; in assay [5], 19.1 nM.
